The text below walks through data of patent publication US20210308093A1, “ACTIVATOR FOR SIMULTANEOUSLY ACTIVATING OXIDATIVE PHOSPHORYLATION AND INHIBITING GLYCOLYSIS AND USE THEREOF” (LANZHOU UNIVERSITY, priority 2019, published 2021).

Entries after “also recorded” stand apart in the source; their conditions may differ.

Data set [1] deals with HuH7 cells. Description: MTT assay, proliferation inhibition of hepatocellular-carcinoma cell line HuH7. The class given is cell-based. As to the method: (§1) The present disclosure carries out experiments to test proliferation inhibition effects of baicalein on hepatocellular-carcinoma cell lines HuH7 and HepG2 respectively, with IC50 values calculated. […] Moreover, the present disclosure establishes a diethylnitrosamine-induced mouse liver cancer model which is then intervened with baicalein.
(§2) Hela, HepG2, and HuH7 cells (from China Center for Type Culture Collection (Wuhan, China)) were cultured at 37° C. with 5% CO2 in Dulbecco's modified Eagle medium (DMEM, Thermo Fisher Scientific) supplemented with 10% fetal bovine serum (Thermo Fisher Scientific) and 1% penicillin-streptomycin (Thermo Fisher Scientific).
(§3) 10^4 cells were added to a 96-well plate. 100 μL of pre-warmed medium was added to each well. After attachment, the cells were starved in a serum-free medium for 24 h, and then transferred to a normal medium containing 100 μM baicalein and cultured for another 24 h. After treatment, the cells were incubated with 100 μL of conventional medium containing 50 μg MTT (Sigma-Aldrich) for 4 h. Finally, purple precipitates were dissolved in 200 μL of DMSO (Sigma-Aldrich), and absorbance at 490 nm was measured by a microplate reader (Bio-Rad).

The subject of the next data set is HepG2 cells. Description: MTT assay, proliferation inhibition of hepatocellular-carcinoma cell line HepG2. The class given is cell-based. How it is done: as §1, §2, §3
The conditions of data set [2]: mouse, in vivo. How it is done: as §1
(§4) All animal operations were carried out based on a protocol approved by the Animal Research Committee of Peking University, China, in accordance with the “Guidelines for Care and Use of Laboratory Animals” (NIH Publication No. 86-23, revised in 1985). All mice (C57BL/6j, Charles River, Beijing, China) were kept in a temperature-controlled barrier facility at Laboratory Animal Center in Peking University (laboratory animal facility approved by AAALAC) with a 12 h light/dark cycle, and had free access to food and water. Only male animals were used Animals were randomly grouped based on weight level. Five mice were selected for each group to meet requirements for statistical significance. A randomised, comparative, and single-blinded test was used. For wild littermates, modeling with diethylnitrosamine was started at 6 weeks of age and maintained for 24 weeks. After 12 weeks of modeling, 400 mg/kg baicalein (40 mg/mL saline) was administered by gavage daily for another 12 weeks, and then liver disease-related symptoms of these mice were analyzed.
(§5) A liver sample cut from a same leaf of each animal was fixed in 4% paraformaldehyde overnight at room temperature, dehydrated with an ethanol gradient, infiltrated with xylene and embedded in paraffin. A paraffin embedded tissue was used to prepare serial sections 5 μm thick for hematoxylin and eosin (H&E) staining.

In data set [3] the test system is diethylnitrosamine-induced hepatocellular carcinoma. Particulars: 400 mg/kg by gavage daily for 12 weeks. How it is done:
as §1, §4, §5

Data set [4] has as its system oxidative phosphorylation in HuH7 cells. Description: Measurement of oxidative phosphorylation and glycolysis in HuH7 cells (Seahorse XF). It is filed as cell-based. As to the method:
Based on the above results, effect of baicalein on oxidative phosphorylation needs to be clarified initially. Therefore, effects of different concentrations of baicalein on oxidative phosphorylation are tested at a cellular level. […] Further analysis finds that, baicalein (100 μM) can improve basal respiration value, maximum respiration value and ATP production in oxidative phosphorylation. […] In order to further confirm effect of baicalein on the oxidative phosphorylation, the present disclosure further extracts mitochondria, a main site where the oxidative phosphorylation locates, and tests effect of baicalein concentration gradient and incubation time gradient on oxidative phosphorylation in the mitochondria. […] At this point, the present disclosure discovers a natural activator of the oxidative phosphorylation, the baicalein. […] 1,000 cells or 4 μg mitochondria were added to the well plate provided by the Seahorse detection kit (Agilent, 103275-100). Related measurements were carried out following instructions.

Data set [5] concerns oxidative phosphorylation in mitochondria. Description: Measurement of oxidative phosphorylation (ATP production) in mitochondria extracted from HuH7 cells. The class given is biochemical. Particulars: concentration gradient and incubation time gradient. As to the method:
Based on the above results, effect of baicalein on oxidative phosphorylation needs to be clarified initially. Therefore, effects of different concentrations of baicalein on oxidative phosphorylation are tested at a cellular level. […] Further analysis finds that, baicalein (100 μM) can improve basal respiration value, maximum respiration value and ATP production in oxidative phosphorylation. […] In order to further confirm effect of baicalein on the oxidative phosphorylation, the present disclosure further extracts mitochondria, a main site where the oxidative phosphorylation locates, and tests effect of baicalein concentration gradient and incubation time gradient on oxidative phosphorylation in the mitochondria. […] At this point, the present disclosure discovers a natural activator of the oxidative phosphorylation, the baicalein. […] Measurement of oxidative phosphorylation with Seahorse XF (Agilent): HuH7 cells, HepG2 cells and mitochondria were prepared. 1,000 cells or 4 μg mitochondria were added to the well plate provided by the Seahorse detection kit (Agilent, 103275-100). Related measurements were carried out following instructions. Measurement of oxidative phosphorylation (ATP production) with QQQ-MS (AB Sciex): mitochondria were extracted from HuH7 cells. A reaction system was prepared according to Table 1 below. 4 μg of mitochondria was added to a 100 μL reaction system. […]

Data set [6] relates to oxidative phosphorylation in HepG2 cells. Description: Measurement of oxidative phosphorylation and glycolysis in HepG2 cells (Seahorse XF). It is filed as cell-based. An excerpt:
With quantitative proteomics analysis, the present disclosure finds that the natural product baicalein can activate the oxidative phosphorylation. Then, it is necessary to clarify relationship between activation of the oxidative phosphorylation by baicalein and anti-cancer activity thereof. Cancer cells have the “Warburg effect”, that is, cancer cells tend to use glycolysis in replace of the oxidative phosphorylation which normal cells tend to use, so that cancer cells grow at a much faster rate than normal cells. […] The present disclosure verifies this phenomenon in HepG2 and HuH7 cells. […] 1,000 cells or 4 μg mitochondria were added to the well plate provided by the Seahorse detection kit (Agilent, 103275-100). Related measurements were carried out following instructions.

The subject of data set [7] is HuH7 cells. Description: siRNA knockdown of key enzyme of oxidative phosphorylation, effect on anti-cancer activity (MTT, HuH7). It is filed as cell-based.
Description: With quantitative proteomics analysis, the present disclosure finds that the natural product baicalein can activate the oxidative phosphorylation. Then, it is necessary to clarify relationship between activation of the oxidative phosphorylation by baicalein and anti-cancer activity thereof. Cancer cells have the “Warburg effect”, that is, cancer cells tend to use glycolysis in replace of the oxidative phosphorylation which normal cells tend to use, so that cancer cells grow at a much faster rate than normal cells. […] The present disclosure verifies this phenomenon in HepG2 and HuH7 cells. […] (See FIG. 4)
The siRNA constructs listed below were designed and synthesized by GenePharma (Shanghai, China). At a modeling stage before baicalein treatment, interference was performed based on the RNAiMAX (Thermo Fisher Scientific) protocol.
as §3

As for `O=c1cc(-c2ccccc2)oc2cc(O)c(O)c(O)c12` [baicalein], the proliferation inhibition effect result in the data set with HuH7 cells [1] was “significantly inhibits”. Moreover, the proliferation inhibition effect result with HepG2 cells is recorded as “significantly inhibits”. Moreover, in data set [2], the liver toxicity result is on record as “no liver toxicity” and the “weight loss of mice” value is “no weight loss”. Further, the “therapeutic effect on mice with hepatocellular carcinoma” value in data set [3] is listed as “significant therapeutic effect”. Moreover, in data set [4], the glycolysis result is given as “inhibits the glycolysis”. In addition, in data set [4] (baicalein 100 μM), the “ATP production in oxidative phosphorylation” value is listed as “can improve”, the basal respiration value result is reported as “can improve” and the maximum respiration value entry was “can improve”. Moreover, the “level of oxidative phosphorylation” value in data set [4] (different concentrations of baicalein) was “activates the oxidative phosphorylation in a concentration dependent manner; also recorded: increasing level of the oxidative phosphorylation”. The “oxidative phosphorylation in the mitochondria” value in data set [5] is “activation of the oxidative phosphorylation in a concentration dependent and time dependent manner”. Moreover, in data set [6], the glycolysis entry was “inhibits the glycolysis” and the “level of oxidative phosphorylation” value is given as “increasing level of the oxidative phosphorylation”. For the same molecule, the “anti-cancer activity after knockdown of a key enzyme of oxidative phosphorylation” value in the data set on HuH7 cells [7] was “greatly weakened”.
